# Reference: ChEMBL document CHEMBL3085646, “Sulfur-containing cytotoxic curvularin macrolides from Penicillium sumatrense MA-92, a fungus obtained from the rhizosphere of the mangrove Lumnitzera racemosa” (J Nat Prod, 2013)
# pIC50: −log10 of the molar value.
# Experiments:
# [1] = Cytotoxic activity against human SGC7901 cells; format: functional, cell-based, SGC-7901; settings: for pIC50: Homo sapiens, SGC-7901, read-out: IC50
# MCF7 = experiment: Cytotoxic activity against human MCF7 cells; format: functional, cell-based; settings: for pIC50: Homo sapiens, MCF7, read-out: IC50
# SW1990 = experiment: Cytotoxic activity against human SW1990 cells; format: functional, cell-based; settings: for pIC50: Homo sapiens, SW1990, read-out: IC50
# Huh-7 = experiment: Cytotoxic activity against human HuH7 cells; format: functional, cell-based; settings: for pIC50: Homo sapiens, Huh-7, read-out: IC50
# DU-145 = experiment: Cytotoxic activity against human DU145 cells; format: functional, cell-based; settings: for pIC50: Homo sapiens, DU-145, read-out: IC50
# NCI-H460 = experiment: Cytotoxic activity against human NCI-H460 cells; format: functional, cell-based; settings: for pIC50: Homo sapiens, NCI-H460, read-out: IC50
# HeLa = experiment: Cytotoxic activity against human HeLa cells; format: functional, cell-based; settings: for pIC50: Homo sapiens, HeLa, read-out: IC50
SMILES,pIC50 [1],pIC50 (MCF7),pIC50 (SW1990),pIC50 (Huh-7),pIC50 (DU-145),pIC50 (NCI-H460),pIC50 (HeLa),further results
COc1cccc2c1C(=O)c1c(O)c3c(c(O)c1C2=O)C[C@@](O)(C(=O)CO)C[C@@H]3O[C@H]1C[C@H](N)[C@H](O)[C@H](C)O1 [DOXORUBICIN],7.96,–,–,–,–,–,–,–
CC(=O)OCCOC(=O)[C@@H](CS[C@H]1CCC[C@H](C)OC(=O)Cc2cc(O)cc(O)c2C(=O)C1)OC(C)=O,5.17,5.33,4.96,5.26,5.15,5.34,5.10,–
COC(=O)[C@H](O)CS[C@H]1CCC[C@H](C)OC(=O)Cc2cc(O)cc(O)c2C(=O)C1,5.26,5.36,5.00,5.41,5.22,5.42,5.22,–
O=c1[nH]cc(F)c(=O)[nH]1 [FLUOROURACIL],–,–,–,–,5.47,–,–,–
CC(=O)O[C@H]1C(=O)[C@@]2(C)[C@H]([C@H](OC(=O)c3ccccc3)[C@]3(O)C[C@H](OC(=O)[C@H](O)[C@@H](NC(=O)c4ccccc4)c4ccccc4)C(C)=C1C3(C)C)[C@]1(OC(C)=O)CO[C@@H]1C[C@@H]2O [PACLITAXEL],–,–,–,–,–,–,4.92,–
C[C@H]1CCC[C@H](SC[C@@H](O)C(=O)O)CC(=O)c2c(O)cc(O)cc2CC(=O)O1,5.07,5.36,4.96,5.29,5.22,5.15,5.22,–
C[C@H]1CCC/C=C/C(=O)c2c(O)cc(O)cc2CC(=O)O1 [DEHYDROCURVULARIN],5.22,5.40,5.00,5.30,5.22,5.30,5.22,–
Nc1ccn([C@@H]2O[C@H](CO)[C@@H](O)C2(F)F)c(=O)n1 [GEMCITABINE],–,–,5.80,–,–,–,–,–
CC1CCCCCC(=O)c2c(O)cc(O)cc2CC(=O)O1 (centres undefined) [CURVULARIN],–,–,–,–,–,–,–,IC50 (MCF7; mcf7): Not Active; IC50 (SW1990; sw1990): Not Active; IC50 ([1]; sgc-7901): Not Active; IC50 (Huh-7; huh-7): Not Active; IC50 (DU-145; du-145): Not Active; IC50 (NCI-H460; nci-h460): Not Active; IC50 (HeLa; hela): Not Active
